Test results published in ChEMBL document CHEMBL3045820, “Discovery of a novel histone deacetylase 8 inhibitor by virtual screening” (Med Chem Res, 2012).

Biological target: T1, Histone deacetylase 8 (Homo sapiens, UniProt Q9BY41)
T1 sequence (Q9BY41 whole entry): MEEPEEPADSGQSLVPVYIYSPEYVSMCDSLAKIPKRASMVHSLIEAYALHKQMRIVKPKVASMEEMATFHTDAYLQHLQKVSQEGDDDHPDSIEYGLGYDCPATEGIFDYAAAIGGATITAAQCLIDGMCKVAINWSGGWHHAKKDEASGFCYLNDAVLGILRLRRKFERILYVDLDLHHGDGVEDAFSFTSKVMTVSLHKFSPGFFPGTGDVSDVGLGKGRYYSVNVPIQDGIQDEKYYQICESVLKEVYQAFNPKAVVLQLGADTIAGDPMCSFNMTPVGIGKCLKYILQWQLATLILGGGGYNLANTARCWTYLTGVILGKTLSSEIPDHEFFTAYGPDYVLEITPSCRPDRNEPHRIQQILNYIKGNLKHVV
Experiment: Inhibition of HDAC8 (unknown origin) expressed in Escherichia coli using Boc-Lys (acetyl)-AMC as substrate incubated for 5 min prior to substrate addition measured after 30 min by fluorescence assay

`COc1cc(C(=O)NN)ccc1COc1ccc(Cl)c(C)c1` gave an IC50 of 1.6 µM.
